Assay results reported in paper PMC4104029, “Mechanism of Action of Compound-13: An α1-Selective Small Molecule Activator of AMPK” (Chemistry & Biology, 2014).
pEC50: −log10 of the molar value.

Assays:
[1] = system: α1-containing complexes (α1β1γ1, α1β2γ1, and α1β1γ2); test: AMPK allosteric activation, summary over several complexes; assay type: biochemical, human; settings: range over several AMPK complexes, cell-free
Source text: We initially compared the ability of C2 and AMP to activate various recombinant human AMPK complexes, expressed in insect cells, in cell-free assays (Figure 1B). As reported previously using rat liver complexes separated by immunoprecipitation ([Salt et al., 1998]), the allosteric activation of α1 complexes by AMP was less than that of α2 complexes. […] Similar results were obtained with other permutations of β and γ subunits in complex with α2 (data not shown). We also tested the effects of C2 and AMP on recombinant human α1β1γ1 and α2β1γ1 complexes expressed in E. coli and obtained similar results (data not shown).
AMPK phosphotransferase activity was assayed in reactions (50 μl) containing 50 mM HEPES, pH 7.4, 10 mM MgCl2, 0.1 mM EGTA, 1 mM DTT, 0.01% BRIJ-35, 100 μM [γ-^32P]ATP (∼250 CPM⋅pmol^−1) and 200 μM AMARA (AMARAASAAALARRR). Reactions were started by the addition of AMPK (5 mU), incubated for 20 min at 30°C and quenched by spotting onto P81 and immersion in 75 mM H3PO4. Washed filters were dried and [^32P] incorporation determined by Cherenkov counting. AMPK activity in cell extracts was determined by immunoprecipitation with AMPKα1 or AMPKα2 antibodies from 50 μg material, as previously described ([Hunter et al., 2011]). […]

[2] = molecular target: T1, 6-phosphofructo-1 kinase (PFK1) (Mus musculus, UniProt P47857); test: PFK1 enzyme assay; assay type: biochemical
T1 construct: made in house; host or cells: E. coli
Description: Figure 1 The AMP Analog C2 Is a Potent AMPK Activator in Cell-Free Assays with Selectivity for α1 Complexes (A) The structure of the endogenous activator of AMPK, AMP; the AMP mimetic, C2; and the classical AMP mimetic, ZMP, and other AMPK activators are shown. […] (B) Recombinant AMPK complexes (α1β1γ1, α2β1γ1, α1β1γ2, and α1β2γ1) expressed in Spodoptera frugiperda were assayed for allosteric activation by AMP or C2. Results are expressed as the increase in activity relative to controls without ligand and represent the mean ± SD for three independent experiments. (C) Enzymes allosterically regulated by AMP (PFK1 and FBP1) or using AMP as a substrate (AMPD1, AK, and 5′-NT) were assayed in the presence of C2 (≤ 100 μM). Enzymes allosterically regulated by AMP were screened for both agonism and antagonism, the latter in the presence of AMP at ≈ EC50. All enzymes were unaffected by [C2] ≤ 100 μM. Representative data are shown for the effects of AMP and C2 on PFK1 and FBP1 activity. Results are representative of three independent experiments conducted on one enzyme preparation. […]

T1 sequence (P47857 whole entry): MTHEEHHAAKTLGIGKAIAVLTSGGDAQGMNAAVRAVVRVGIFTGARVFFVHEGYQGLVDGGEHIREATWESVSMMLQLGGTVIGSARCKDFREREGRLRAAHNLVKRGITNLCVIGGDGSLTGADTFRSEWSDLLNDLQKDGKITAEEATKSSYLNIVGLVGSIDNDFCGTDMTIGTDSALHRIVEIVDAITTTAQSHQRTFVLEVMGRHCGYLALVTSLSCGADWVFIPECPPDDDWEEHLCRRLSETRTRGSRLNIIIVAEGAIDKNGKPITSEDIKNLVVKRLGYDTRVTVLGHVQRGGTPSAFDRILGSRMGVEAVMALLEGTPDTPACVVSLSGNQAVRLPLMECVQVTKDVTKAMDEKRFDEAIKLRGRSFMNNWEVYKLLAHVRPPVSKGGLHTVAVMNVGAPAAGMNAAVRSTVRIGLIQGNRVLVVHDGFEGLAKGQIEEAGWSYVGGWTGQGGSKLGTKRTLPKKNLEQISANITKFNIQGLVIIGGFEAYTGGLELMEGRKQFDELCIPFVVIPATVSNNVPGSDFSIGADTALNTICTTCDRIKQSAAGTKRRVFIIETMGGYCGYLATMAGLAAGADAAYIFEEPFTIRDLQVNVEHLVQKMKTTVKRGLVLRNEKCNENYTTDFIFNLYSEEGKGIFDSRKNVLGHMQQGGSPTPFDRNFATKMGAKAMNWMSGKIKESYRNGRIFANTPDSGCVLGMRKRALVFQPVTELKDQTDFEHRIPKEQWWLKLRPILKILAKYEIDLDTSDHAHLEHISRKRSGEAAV

## Nc1ncnc2c1ncn2[C@@H]1O[C@H](COP(=O)(O)O)[C@@H](O)[C@H]1O [AMP, reference compound]
[1]
  pEC50: 5.40 to 5.70
[2]; read-out: EC50, activation of PFK1
  pEC50: 4.48

## O=P(O)(O)c1ccc(-c2cc(O)on2)o1 [Compound C2, 5-(5-hydroxyl-isoxazol-3-yl)-furan-2-phosphonic acid]
[1]
  pEC50: 7.52 to 8.00
[2]; concentrations up to 100 μM
  effect on PFK1: no effect
